These results are taken from PubChem BioAssay (NCI).

What all share (assay): growth of human tumour cells (NCI), 48 h
Experiment [1] has as its system CAKI-1 renal.
In experiment [2] the test system is SF-539 CNS.
The subject of experiment [3] is SK-MEL-2 melanoma.
Experiment [4] has as its system UACC-257 melanoma.
In experiment [5] the test system is HT29 colon.
For experiment [6], the system named is 786-0 renal.
Experiment [7] concerns A498 renal.
Experiment [8] has as its system NCI-H460 lung.
Experiment [9] concerns LOX IMVI melanoma.
The test system of experiment [10] is NCI-H522 lung.

Several values for one entry are separate records, joined by “and”; a condition that tells them apart may be missing. Identical values can stand only once.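 Tested at 5 concentrations; 48 h exposure; 96-well plates; endpoints linearly interpolated, else capped at highest concentration. The concentration for 50% growth inhibition is given as GI50. At the TGI there is no net growth.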

On to `CCOC(=O)C[C@@H](C)[C@]1(C(=O)OC)CCCC1=O`, for which the TGI in [1], in experiment [2], in [3], in [4], in experiment [5] and in experiment [6] was above 100 µM throughout. For the same compound, the TGI in experiment [7] was above 100 µM; in experiment [8] it was above 100 µM; in [9], above 61.5 µM; in experiment [10] it was above 100 µM.
On to `C[C@H](N)C(=O)N[C@@H]1[C@H]2C(=C(O)C[C@@H](O)[C@@H]2O)C(=O)O[C@]1(C)C(Cl)Cl`, for which the GI50 in experiment [1] was 0.43 µM; in [2] it was 0.326 µM; in experiment [3], 0.308 µM; in [4], 0.096 µM; in [5] it was 0.282 µM; in experiment [6], 0.246 µM. Besides, the GI50 in experiment [8] is 0.146 µM; in experiment [9] it was 0.106 µM; in experiment [10], 0.191 µM. For the same compound, the TGI in experiment [2] was 2.37 µM and 0.88 µM; in experiment [3] it was 1.49 µM and 0.958 µM; in [4] it was 1.16 µM and 1.94 µM; in [5] it was 1.69 µM and 1.3 µM; in [6] it was 10.9 µM and 1.8 µM; in [7], 2.27 µM and 1.56 µM. The TGI in [8] is 1.4 µM and 1.2 µM; in experiment [9] it was 0.454 µM and 0.675 µM; in experiment [10], 0.955 µM and 0.755 µM.
As for `C#CCSc1n[nH]c(-c2ccco2)n1`, the TGI in experiment [1], in experiment [2], in experiment [3], in experiment [4], in experiment [5] and in experiment [6] was above 100 µM each time. The TGI in [7], in [8], in experiment [9] and in experiment [10] was above 100 µM in each case.
Regarding `CCOC(=O)Cc1nc2ccccc2s1`, the TGI in experiment [1] was 48.1 µM; in experiment [2], 36.6 µM; in [3] it was 36.5 µM; in experiment [4] it was 33.2 µM; in experiment [5] it was 37.1 µM; in experiment [6], 32.9 µM. The TGI in experiment [7] is 36 µM; in [8], 39.6 µM; in experiment [9], 32.4 µM; in experiment [10] it was 41.1 µM.
In the case of `O=C(N/N=C/c1ccccc1O)C(O)(c1ccccc1)c1ccccc1`, the GI50 was 2.36 µM in experiment [1]; above 100 µM in experiment [2]; 53.1 µM in experiment [3]; 5.99 µM in [4]; 4.46 µM in experiment [5]; above 100 µM in experiment [6]. In addition, the GI50 in experiment [7] was above 100 µM; in experiment [8], 3.54 µM; in [9] it was 5.09 µM; in experiment [10] it was 19.7 µM. Also, the TGI in experiment [1], in experiment [2], in experiment [3], in [4], in [5] and in [6] was above 100 µM throughout. Besides, the TGI in experiment [7], in experiment [8], in experiment [9] and in experiment [10] was above 100 µM in each case.
Turning to `C=CC(=O)N1C/C(=C\c2ccccc2)C(=O)/C(=C/c2ccccc2)C1`, the TGI worked out at 6.88 µM in experiment [1]; 3.69 µM in [2]; 4.81 µM in experiment [3]; 4.29 µM in experiment [4]; 2.87 µM in experiment [5]; 2.54 µM in experiment [6]. The TGI in experiment [7] was found to be 4.03 µM; in experiment [8] it was 4.47 µM; in experiment [9], 0.638 µM; in [10], 3.49 µM. In addition, the GI50 was 0.528 µM in experiment [5], 0.357 µM in experiment [9] and 0.348 µM in experiment [10].
With `CN1CCC(CNc2ccc3ncc(-c4cccc(OC(F)(F)F)c4)n3n2)CC1`, the GI50 was 1.47 µM and 1.83 µM in experiment [1]; 1.68 µM and 1.51 µM in experiment [2]; 1.64 µM and 1.76 µM in [3]; 1.51 µM and 1.44 µM in experiment [4]; 1.75 µM and 1.85 µM in experiment [5]; 1.78 µM and 1.69 µM in experiment [6]. In addition, the GI50 is 0.869 µM and 1.58 µM in [7]; 2.16 µM and 2.94 µM in [8]; 1.56 µM and 1.47 µM in [9]; 1.64 µM and 1.52 µM in [10]. For the same compound, the TGI is 3.57 µM and > 10 µM in experiment [1]; 3.47 µM and 3.11 µM in experiment [2]; 3.25 µM and 4.34 µM in [3]; 3.05 µM and 2.8 µM in experiment [4]; 4.49 µM and 5.15 µM in [5]; 3.45 µM and 4.06 µM in [6]. Besides, the TGI in experiment [7] is 3.28 µM and 7.47 µM; in [8], 5.68 µM and > 10 µM; in [9], 3.2 µM and 2.85 µM; in experiment [10] it was 3.33 µM and 3.57 µM.
For the compound `COc1cccc(NC(=O)C(C)(C)C)c1C=O`, the TGI in experiment [1], in experiment [2], in [3], in experiment [4], in experiment [5] and in experiment [6] was above 100 µM each time. Moreover, the TGI in [7], in experiment [8], in [9] and in experiment [10] was above 100 µM throughout.
As to `COc1cc2c3c(c4ccc(OC)c(OC)c4c2cc1OC)CN1CCC[C@@H]1C3`, the TGI in [1] turned out to be 1.1 µM; in experiment [2], 0.425 µM; in [3] it was 0.237 µM; in experiment [4], 17.7 µM; in [5], 0.593 µM; in experiment [6], 1.78 µM. The TGI in [7] is 0.0681 µM; in experiment [8], 2.09 µM; in experiment [9] it was 0.384 µM; in [10], 0.792 µM.
`C[N+](C)(C)CC(=O)N/N=C(\CCC(=O)NCCc1ccccc1)CC(=O)c1ccccc1`: the TGI in [1], in experiment [2], in experiment [3], in experiment [4], in [5] and in [6] was above 100 µM in each case. In addition, the TGI in experiment [7], in experiment [8], in experiment [9] and in [10] was above 100 µM in each case.
